According to patent US10442800B2, “Crystal forms of NBI-98854, preparation method and use thereof” (Crystal Pharmaceutical (Suzhou) Co., Ltd., priority 2016, dated 2019):

Experiments:
Format in all cases: physicochemical
[1] = Hygroscopicity experiment by Dynamic Vapor Sorption (DVS); settings: 25° C.; for hygroscopicity class: Chinese Pharmacopoeia 2015 definition, 80% RH; for weight gain: DVS, at 80% RH
Description: Dynamic Vapor Sorption (DVS) is measured via a SMS (Surface Measurement Systems Ltd.) intrinsic DVS. Its control software is DVS-Intrinsic control software, and its analysis software is DVS-Intrinsic analysis software. Typical Parameters for DVS test are as follows:
Gas and flow rate: N2, 200 mL/min
RH range: 0% RH to 95% RH
14.3 mg of Form CS1 was placed in a DVS instrument and underwent a cycle of 0%-95%-0% RH. The DVS curve is substantially as depicted in FIG. 12. A weight gain of 0.08% is observed at 80% RH.
8.6 mg of Form CS2 was placed in a DVS instrument and underwent a cycle of 40%-95%-0%-95% RH. A weight gain of 0.56% is observed at 80% RH.

[2] = Stability assessment under storage (XRPD for crystalline form, HPLC for chemical purity); settings: for stability (overall conclusion): 25° C./60% RH and 40° C./75% RH for 1 month; for Purity / Initial purity: HPLC; for Initial purity: initial sample before storage; for Crystalline form: XRPD
Description: X-ray powder diffraction pattern in the present disclosure was acquired by a Panalytical Empyrean X-ray powder diffractometer. The parameters of the X-ray powder diffraction method of the present disclosure were as follows:
High Performance Liquid Chromatography (HPLC) data in the present disclosure are collected from Agilent 1100 with diode array detector (DAD). The HPLC method parameters for purity test in the present disclosure are as follows:
1. Column: Waters Xbridge C18 150×4.6 mm, 5 μm
2. Mobile Phase: A: 0.1% TFA in H2O • B: 0.1% TFA in Acetonitrile • Gradient: […]
4. Injection Volume: 10 μL
5. Detection wavelength: 230 nm
6. Column Temperature: 40° C.
7. Diluent: 50% Acetonitrile
(§1) Form CS1 in the present disclosure was stored under different conditions of 25° C./60% RH and 40° C./75% RH for 1 month. Samples were taken at the end of 1 month. XRPD and HPLC were used to test the crystalline form and chemical purity. The XRPD overlay is shown in FIG. 14 (Above is the initial sample, in the middle is the sample placed under 25° C./60% RH for 1 month, at the bottom is the sample placed under 40° C./75% RH for 1 month).
as §1, with “CS2” for “CS1”, “The experimental results are summarized in Table 9. the” for “The”, “15” for “14”

[3] = Morphology test by polarized light microscopy (PLM); settings: PLM image
Description: Form CS1 and Form CS2 in the present disclosure were tested by polarized light microscopy, and the results were depicted in FIG. 16 and FIG. 17. The morphologies of Form CS1 and Form CS2 are needle and block, respectively. Both forms disperse well and have little agglomeration. It can be seen from the PLM images that the morphologies of Form CS1 and Form CS2 in the present disclosure are suitable for the development of drug product.

hygroscopicity class [1]	weight gain [1] [%]	stability (overall conclusion) [2]	Purity ([2]; after 25° C./60% RH (1 month)) [%]	Purity ([2]; after 40° C./75% RH (1 month)) [%]	Initial purity [2] [%]	Crystalline form ([2]; after 25° C./60% RH (1 month))	Crystalline form ([2]; after 40° C./75% RH (1 month))	morphology [3]	SMILES
almost non hygroscopic	0.08	good stability	98.21	97.76	98.02	unchanged	unchanged	needle	COc1cc2c(cc1OC)[C@H]1C[C@@H](OC(=O)[C@@H](N)C(C)C)[C@H](CC(C)C)CN1CC2 [Form CS1, (S)-2-amino-3-methyl-butyric acid (2R,3R,11bR)-3-isobutyl-9,10-dimethoxy-1,3,4 6,7,11b-hexahydro-2H-pyrido[2,1-a]isoquinolin-2-yl ester]
slightly hygroscopic	0.56	good stability	98.60	97.38	98.34	unchanged	unchanged	block	COc1cc2c(cc1OC)[C@H]1C[C@@H](OC(=O)[C@@H](N)C(C)C)[C@H](CC(C)C)CN1CC2 [Form CS2, (S)-2-amino-3-methyl-butyric acid (2R,3R,11bR)-3-isobutyl-9,10-dimethoxy-1,3,4 6,7,11b-hexahydro-2H-pyrido[2,1-a]isoquinolin-2-yl ester]
